According to patent US8071654B2, “Inhibitors of thromboxane formation and action” (priority 2000, dated 2011):

What was measured:
12-LOX = molecular target: T1, 12-LOX (Homo sapiens, UniProt P18054); assay: 12-HETE formed in collagen-treated washed human platelets (12-LOX), HPLC; type: cell-based; conditions: for 12-LOX enzyme activity (% of control values, mean ± SD): n = 3
T1 construct: endogenous in cells; host or cells: washed human platelets
T1 sequence (P18054 1-663): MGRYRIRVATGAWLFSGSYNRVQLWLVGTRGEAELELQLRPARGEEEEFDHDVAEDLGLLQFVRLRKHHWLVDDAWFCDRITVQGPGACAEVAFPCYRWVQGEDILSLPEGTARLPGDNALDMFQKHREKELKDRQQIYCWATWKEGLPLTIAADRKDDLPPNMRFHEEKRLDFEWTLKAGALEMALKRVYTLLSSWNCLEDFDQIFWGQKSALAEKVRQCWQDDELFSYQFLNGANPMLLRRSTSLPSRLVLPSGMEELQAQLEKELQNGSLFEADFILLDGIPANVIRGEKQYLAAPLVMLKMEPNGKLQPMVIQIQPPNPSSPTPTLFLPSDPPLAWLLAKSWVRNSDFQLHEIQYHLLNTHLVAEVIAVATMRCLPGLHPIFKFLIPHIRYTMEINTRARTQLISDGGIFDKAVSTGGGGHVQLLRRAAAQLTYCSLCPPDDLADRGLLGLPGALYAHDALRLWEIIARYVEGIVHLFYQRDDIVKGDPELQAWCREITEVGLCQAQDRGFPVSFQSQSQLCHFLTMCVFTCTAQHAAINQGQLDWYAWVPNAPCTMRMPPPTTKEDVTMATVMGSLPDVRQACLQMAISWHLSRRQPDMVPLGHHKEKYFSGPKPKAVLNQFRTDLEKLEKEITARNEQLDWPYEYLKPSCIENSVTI
Procedure: (§1) 0.5 ml of platelet suspension was added to siliconized glass tubes (four at a time) and heated with magnetic stirring to 37° for 1 min in a platelet aggregometer (PAP-4C). Either vehicle alone (ethanol, 1 μl) or hepoxilin analog was then added, followed two min later by agonist (collagen: 2 μg; PGH2: 100 ng/0.5 ml; U46619: 10 ng/0.5 ml or I-BOP: 2 ng/0.5 ml). The response was recorded for the next 5 min. In experiments where analysis of TxB2 and HHT were to be made by HPLC, the platelet suspension at the end of the experiment was diluted with ethyl acetate, 100 ng of prostaglandin B1 was added as internal standard, and the mixture was acidified to pH 3 with 0.1 N HCl. After centrifugation, the organic layer was separated, washed twice with water to neutrality, and evaporated to dryness. Half of the sample was taken and was resuspended in 1 ml ethyl acetate containing 20 μg ADAM reagent, and was left in the dark for 2 h (38). The solvent was then evaporated and the residue was acetylated with a solution of pyridine/acetic anhydride (3/1, v/v) during 16 h at 23°. The reagents were evaporated to dryness and the residue was resuspended in acetonitrile/water for HPLC analysis. In experiments where the conversion of tritiated PGH2 was to be monitored, the procedure described above was repeated with tritiated PGH2 instead of unlabeled PGH2. After extraction of the sample as described above, the radiolabeled compounds were analyzed by TLC. Dose response curves for varying amounts of test compounds were generated and the data expressed as % inhibition of collagen-induced platelet aggregation. Each point was investigated 5 times and statistical analysis of the data was carried out using Macintosh Statview statistical software.
(§2) Measurement of eicosanoids formed by platelets during treatment with collagen or the TP receptor agonists in the presence or absence of PBT-3 was carried out by HPLC after appropriate derivatization with a fluorescent tag (anthracyl diazomethane—ADAM) which forms a fluorescent ester (44). The method was adapted to measure the following compounds: TxB2, HHT, 12-HETE and M. The platelet suspension at the end of the experiment was mixed with ethyl acetate, 100 ng of prostaglandin B1 was added as internal standard and the mixture was acidified to pH 3 with 0.1 N HCl. After centrifugation, the organic layer was separated, washed twice with water to neutrality, and evaporated to dryness. The residue was resuspended in ethyl acetate and half of the sample was taken. It was diluted to 0.2 ml with ethyl acetate containing 20 μg ADAM reagent, and was left in the dark for 2 h. The solvent was then evaporated and the residue was acetylated with a solution of pyridine/acetic anhydride (3/1, v/v) for 16 h at 23°. The reagents were evaporated to dryness and the residue was resuspended in acetonitrile/water for HPLC analysis. Dose response curves for varying amounts of test compounds were generated and the data were expressed as % inhibition of agonist-induced platelet aggregation. Each point was investigated 3 times and statistical analysis of the data was carried out using Macintosh Statview statistical software.
(§3) Analysis of the anthryl (ADAM)-acetate derivative of TxB2, HHT and 12 HETE in the extracted platelet samples was carried out on a Hewlett Packard (1100 series) HPLC to which was attached a Shimadzu fluorescent detector (RF-10AXL). The detector was operated with excitation at 364 nm, emission at 411 nm. […]

[1] = intra ocular pressure in rats, eye drops, TonoPen; type: in vivo, Brown Norway rats; conditions: 0.005%, one drop daily to left eye, after 10 days' treatment, vs untreated right eye
Procedure: Brown Norway rats (300 g) were purchased from Charles River (St. Constant, Que), and housed (two/cage) in an animal facility with free access to food and water. A light cycle of 12 h on and 12 h off was maintained. Animals were allowed to adjust for one week prior to treatment during which period they were handled daily to get them familiarized with the procedures.
Prior to treatment with test drugs, the rats' intra ocular pressures (IOP) were measured to establish baseline readings. One drop of Didocaine (0.5%, Dioptic Labs, Markham, Ont) was administered to each eye, and the pressure in each eye was measured with a TonoPen (Mentor XL, Innova Medical Ophthalmics, Toronto). The treatment protocol consisted of daily administration of one drop of one of the following substances to the left eye, the right eye being left untreated to act as a control. […] Following this, the animals were left without treatment for 2 weeks (wash-out), and then treatment was started again, the same animals receiving the same drugs. Results are calculated from at least 30 readings/test animal and presented as the mean±SEM (left eye vs right eye), with the exclusion of readings >50 and <10 which were considered spurious and artifactual readings.

Plase A2 = assay: AA formed in collagen-treated washed human platelets (Plase A2), HPLC; type: cell-based; conditions: for Plase A2 enzyme activity (% of control values, mean ± SD): n = 3
Procedure: as §1, §2, §3

[2] = relatively large amounts of PBT-3, about 3-4 log doses greater than required to inhibit the TP receptor

## CCCCC/C=C\CC1CC1[C@@H](O)/C=C\C/C=C\CCCC(=O)OC (stereo partly drawn) [PBT-3, 10(S)-hydroxy-11,12-cyclopropyl-eicosa-5Z,8Z,14Z-trienoic acid methyl ester]
12-LOX; PBT-3 0.05 μM
  12-LOX enzyme activity (% of control values, mean ± SD): 79.4 ± 7.6 % of control
12-LOX; PBT-3 0.30 μM
  12-LOX enzyme activity (% of control values, mean ± SD): 85.2 ± 7.4^NS % of control
12-LOX; PBT-3 0.60 μM
  12-LOX enzyme activity (% of control values, mean ± SD): 73.0 ± 4.9 % of control
12-LOX; PBT-3 3.00 μM
  12-LOX enzyme activity (% of control values, mean ± SD): 102.5 ± 5.7^NS % of control
12-LOX; [2]
  inhibition of 12-LOX, in words: Neither COX-1, COX-2,12-LOX nor Plase A2 was inhibited
[1]
  effect on intra ocular pressure (IOP): significant reduction in IOP, comparable to that produced by latanoprost
Plase A2; PBT-3 0.05 μM
  Plase A2 enzyme activity (% of control values, mean ± SD): 100.0 ± 6.9^NS % of control
Plase A2; PBT-3 0.30 μM
  Plase A2 enzyme activity (% of control values, mean ± SD): 91.9 ± 5.6^NS % of control
Plase A2; PBT-3 0.60 μM
  Plase A2 enzyme activity (% of control values, mean ± SD): 89.5 ± 15.6^NS % of control
Plase A2; PBT-3 3.00 μM
  Plase A2 enzyme activity (% of control values, mean ± SD): 120.8 ± 18.3^NS % of control
Plase A2; [2]
  inhibition of Plase A2, in words: Neither COX-1, COX-2,12-LOX nor Plase A2 was inhibited
